Assay results: patent US4308210A, “Nanaomycin B and therapeutic compositions containing same” (The Kitasato Institute, priority 1976, dated 1981)
Values after ≈ are worked out from the molar mass of the structure shown.

Experiments:
Format in all cases: cell-based
Saccharomyces sake = test: Antifungal activity, agar dilution method; conditions: potato agar, pH 6.4, 27° C., 4 days
Experimental: (§1) Minimal inhibitory concentration is assayed by agar dilution method
(§2) (potato agar, pH 6.4, 27° C., 4 days)

Candida albicans = test: Antifungal activity, agar dilution method; conditions: potato agar, pH 6.4, 27° C., 4 days
Experimental: as §1, §2

Trichophyton violaceum = test: Antifungal activity, agar dilution method; conditions: potato agar, pH 6.4, 27° C., 4 days
Experimental: as §1, §2

[1] = test system: Trichophyton interdigitale; test: Antifungal activity, agar dilution method; conditions: potato agar, pH 6.4, 27° C., 4 days
Experimental: as §1, §2

Trichophyton ferrugineum = test: Antifungal activity, agar dilution method; conditions: potato agar, pH 6.4, 27° C., 4 days
Experimental: as §1, §2

Trichophyton asteroides = test: Antifungal activity, agar dilution method; conditions: potato agar, pH 6.4, 27° C., 4 days
Experimental: as §1, §2

Trichophyton rubrum = test: Antifungal activity, agar dilution method; conditions: potato agar, pH 6.4, 27° C., 4 days
Experimental: as §1, §2

Trichophyton schoenleini = test: Antifungal activity, agar dilution method; conditions: potato agar, pH 6.4, 27° C., 4 days
Experimental: as §1, §2

Aspergillus fumigatus = test: Antifungal activity, agar dilution method; conditions: potato agar, pH 6.4, 27° C., 4 days
Experimental: as §1, §2

Microsporum gypseum = test: Antifungal activity, agar dilution method; conditions: potato agar, pH 6.4, 27° C., 4 days
Experimental: as §1, §2

Aspergillus niger = test: Antifungal activity, agar dilution method; conditions: potato agar, pH 6.4, 27° C., 4 days
Experimental: as §1, §2

mycoplasma = test: Antimycoplasma activity, paper disc method; conditions: Eiken PPLO agar, pH 7.8, 37° C., 1 day
Experimental: Inhibitory zone is assayed by paper disc method (Eiken PPLO agar, pH 7.8,

[2] = Trichophyton, 96 h, read-out: Minimal Inhibitory Con.

Compound: ethylkalafunginate
- Minimal Inhibitory Con. (Saccharomyces sake): > 100 µg/mL
- Minimal Inhibitory Con. (Candida albicans): > 100 µg/mL
- Minimal Inhibitory Con. (Trichophyton violaceum): > 100 µg/mL
- Minimal Inhibitory Con. [1]: > 100 µg/mL
- Minimal Inhibitory Con. (Trichophyton ferrugineum): > 100 µg/mL
- Minimal Inhibitory Con. (Trichophyton asteroides): > 100 µg/mL
- Minimal Inhibitory Con. (Trichophyton rubrum): > 100 µg/mL
- Minimal Inhibitory Con. (Trichophyton schoenleini): > 100 µg/mL
- Minimal Inhibitory Con. (Aspergillus fumigatus): > 100 µg/mL
- Minimal Inhibitory Con. (Microsporum gypseum): > 100 µg/mL
- Minimal Inhibitory Con. (Aspergillus niger): > 100 µg/mL
- Inhibitory Zone (mycoplasma; 10 μg/ml): none
- Inhibitory Zone (mycoplasma; 100 μg/ml): none

Compound: CCC[C@H]1O[C@H](CC(=O)O)CC2=C1C(=O)c1c(O)cccc1C2=O [Deoxyfrenolicin, deoxyfrenolicin]
- MIC (Saccharomyces sake; Saccharomyces, 96 h, read-out: Minimal Inhibitory Con.): 6.3 µg/mL (≈ 19.1 µM)
- MIC (Candida albicans; Candida albicans, 96 h, read-out: Minimal Inhibitory Con.): 50 µg/mL (≈ 151 µM)
- MIC (Trichophyton violaceum; Trichophyton violaceum, 96 h, read-out: Minimal Inhibitory Con.): 0.8 µg/mL (≈ 2.42 µM)
- MIC ([1]; Trichophyton interdigitale, 96 h, read-out: Minimal Inhibitory Con.): 0.4 µg/mL (≈ 1.21 µM)
- MIC (Trichophyton ferrugineum; Microsporum ferrugineum, 96 h, read-out: Minimal Inhibitory Con.): 3.1 µg/mL (≈ 9.38 µM)
- MIC (Trichophyton asteroides; [2]): < 0.2 µg/mL
- MIC (Trichophyton rubrum; Trichophyton rubrum, 96 h, read-out: Minimal Inhibitory Con.): < 0.2 µg/mL
- MIC (Trichophyton schoenleini; [2]): < 0.2 µg/mL
- MIC (Aspergillus fumigatus; Aspergillus fumigatus, 96 h, read-out: Minimal Inhibitory Con.): 6.3 µg/mL (≈ 19.1 µM)
- MIC (Microsporum gypseum; Nannizzia gypsea, 96 h, read-out: Minimal Inhibitory Con.): < 0.2 µg/mL
- MIC (Aspergillus niger; Aspergillus niger, 96 h, read-out: Minimal Inhibitory Con.): > 100 µg/mL
- zone of inhibition at 10 µg/mL (mycoplasma; Mycoplasma, 24 h, 10 μg/ml, read-out: Inhibitory Zone): 14.6 mm
- zone of inhibition at 100 µg/mL (mycoplasma; Mycoplasma, 24 h, 100 μg/ml, read-out: Inhibitory Zone): 21.8 mm
